Entries after “also recorded” stand apart in the source; their conditions may differ.
Tests used:
[1] = target: T1, PHD2_181-402 (Homo sapiens, UniProt Q9GZT9); assay: PHD2_181-402 inhibition assay (bioluminescent succinate detection, Succinate-Glo); assay type: biochemical
Protocol: PHD2_181-402 activity and inhibition assays were performed with the Succinate-Glo JmjC Demethylase/Hydroxylase Assay Kit (Promega) according to manufacturer protocol and as detailed in Alves et al. […] The enzymatic reaction was incubated at room temperature for 10 minutes, after which succinate formation was detected according to manufacturer protocol. […] Then, 20 µL of Succinate Detection Reagent II was added to the reactions and incubated for 10 min at room temperature before the luciferase-generated luminescence was recorded on a plate-reading luminometer. Succinate standard curves were used to determine the sensitivity and linear range of the bioluminescent succinate detection. […] Succinate standards were serially diluted two-fold from 15 µM to 58.6 nM and a 0 succinate blank. 10 µL of succinate standards were used for detection as described above. […] Reactions were incubated at room temperature for 10 minutes and succinate detected. […] Measured IC50s were calculated from fitting the percentage activity data to the [Inhibitor] vs. normalized response – variable slope least squares nonlinear regression in GraphPad Prism 9. True IC50s were calculated from measured IC50s with the equation derived by Wu et al.[26] describing the relationship between the measured IC50 of an inhibitor and the percentage of substrate conversion.

[2] = test system: murine enteroids; assay: HIF stabilization in differentiated murine enteroids; assay type: cell-based, mice; details: butyrate with or without 1 mM MCPA, 4 h
Protocol: Murine intestinal organoids/enteroids were isolated from wild-type C57BL/6 mice and cultured as previously described.[60] Briefly, colonic tissues were minced and then enzymatically digested and dissociated in GentleMACS tubes (Milteny Biotec). The homogenized tissues were then filtered through a 70 µm cell strainer and resuspended in Matrigel (Corning). Cells were cultured in L-WRN conditioned media until ready for differentiation into an epithelial lineage, in which the cells were incubated for 2 d in L-WRN media diluted 5-fold with DMEM:F-12 supplemented with 10% calf serum, 1% penicillin/streptomycin, and 1% GlutaMAX™. […] MCPA treatment also includes a 2 h pretreatment with MCPA before butyrate was added.
TRIzol® reagent (ThermoFisher Scientific) was used to isolate total RNA from T84 cells. […] Quantitative PCR analysis was performed using the Power SYBR™ Green master mix (Applied Biosystems) in a thermocycler. Fold change in expression of target mRNA relative to β-actin (ACTB) mRNA was calculated using the delta-delta Ct method. […]
T84 cells were rinsed with PBS and collected and lysed in 200 µL of radioimmunoprecipitation assay (RIPA, 50 mM Tris-HCl pH 8.0, 1 mM EDTA, 1% Triton X-100, […], 0.5% sodium deoxycholate, 150 mM NaCl) buffer with protease inhibitors on ice. […] Protein quantity of the supernatant was determined using the Bradford reagent. […]

[3] = target: T1, PHD2_181-402; assay: WaterLOGSY 1D NMR binding; details: for binding to PHD2_181-402 (WaterLOGSY signal): 10 mM ligand, 25 μM PHD2_181-402
Excerpt: Next, we established whether butyrate binds directly to PHD2_181-402 using 1D WaterLOGSY NMR.[28] This method enables sensitive and robust detection of binding (dissociation constants as weak as μM to low mM) based on the magnetization transfer between water molecules, proteins, and ligands of interest in close proximity via dipolar proton–proton cross-relaxation (nuclear Overhauser effect, NOE). […] Binding and non-binding ligands can be distinguished in a WaterLOGSY spectrum via their opposite signs in relation to water for their corresponding peaks.
Following an established protocol, all NMR analyses were performed using PHD2_181-402 and the diamagnetic element (Zn^2+) rather than a paramagnetic element such as Fe^2+ that would result in inhibitive signal reduction or loss due to fast relaxation induced by the unpaired electron.[63]
Water-Ligand Observed via Gradient SpectroscopY (WaterLOGSY): Measurements were carried out on a 600 MHz triple-resonance Bruker cryoprobe spectrometer.[28] Selective water inversion was achieved using an iBURP shaped pulse with 15 ms length and an inversion bandwidth of 0.4 ppm. The mixing time was set to 1 s, and the water was suppressed using double Watergate. 1024 scans were acquired with an interscan delay of 2 s. The sample concentration was 25 µM of PHD2_181-402 mixed with 10 mM of the different ligands in NMR buffer (Tris 50 mM, NaCl 20 mM, ZnCl2 100 μM) at pH 6.5.

T1 sequence (Q9GZT9 181-402): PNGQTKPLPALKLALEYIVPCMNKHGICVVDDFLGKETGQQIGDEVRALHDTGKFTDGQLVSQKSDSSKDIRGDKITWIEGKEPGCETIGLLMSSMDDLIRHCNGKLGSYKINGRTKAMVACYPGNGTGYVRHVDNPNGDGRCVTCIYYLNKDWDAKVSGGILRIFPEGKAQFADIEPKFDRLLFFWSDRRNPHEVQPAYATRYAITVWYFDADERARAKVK

change of IC50 with increasing 2-OG ([1]; 2-OG at 1, 5, 10, 40 or 100 µM): did not change
Ki ([1]; calculated from true IC50 with the IC50 to Ki conversion equation of Cer et al., read-out: noncompetitive Ki): 5.3 ± 0.5 mM
mode of inhibition ([1]; from 2-OG titration, WaterLOGSY and MST): noncompetitive
IC50 ([1]; read-out: True IC50): 5.3 ± 0.5 mM
binding to PHD2_181-402 (WaterLOGSY signal) ([3]; listed as Butyric acid): indicating binding
Structure (SMILES): CCCC(=O)O [Butyrate]
HIF-1α protein expression [2]: increased HIF-1α protein expression
HIF-1α target gene expression [2]: induced expression of HIF-1α target genes
binding to the 2-OG and PHD2_181-402 complex (WaterLOGSY) ([3]; 10 mM butyrate, 25 μM PHD2_181-402, with 150 μM 2-OG): could not bind; also recorded: absence of binding
binding to PHD2_181-402 (WaterLOGSY signal) [3]: clear positive signal, indicative of binding
